# Measured values as given in patent US7972798B2, “Method for identifying diabetic patients at increased risk for pathological complications” (The United States of America as represented by the …, priority 2007, dated 2011).
# “Also recorded” adds a separate entry of the source.
# Columns and labels:
# Bovine endothelial cells = assay: Apoptosis assay (Hoechst 33342 / propidium iodide) in endothelial cells; format: cell-based
# Procedure: Apoptosis Assay. Endothelial cells were cultured in 24-well plates to reach ˜90% confluence. Purified IgG was added directly to cultured medium. At 0, 6, 12, 18 and 24 hours, culture media was removed and the cells were incubated in a balanced salt solution (BSS) (140 mM NaCl, 2.8 mM KCl, 2 mM CaCl2, 2 mM MgCl2, 10 mM HEPES, pH 7.2) containing propidium iodide (PI, 25 μg/ml) and Hoechst 33342 (10 μM, Sigma) for 15 min. The cells were examined by Zeiss Axiovert 200M microscope using 20× objective (NA 0.4) for phase contrast, fluorescent blue (Hoechst) and red (PI) images. As a membrane permeable dye, Hoechst stains all nuclei with bright blue, while cell impermeable PI only stains the nuclei in the dying cells, which lost their membrane integrity. Early apoptotic cells whose membranes are still intact present only blue nuclei, but the initiation of DNA fragmentation result in patched labeling of the nuclei by Hoechst (14). Cells entering the late apoptotic stage have bright red condensed chromatin or fragmented nuclei that distinguish them from necrotic ones, which have a uniform red color usually with enlarged nuclei. For each experiment, a minimum of total 400 cells for each duplicated sample were counted from at least five randomly chosen fields and the percentage of total apoptotic cells was obtained by adding early and late apoptotic cells. Each experiment was repeated at least three times.
# endothelial cells = assay: F-actin stress fiber formation in endothelial cells (phalloidin staining); format: cell-based, bovine; settings: co-incubation, 10 uM
# Procedure: For bright field images, the ˜90% confluent endothelial cells in 24-well plates with various treatments were visualized under Zeiss Axiovert 200 inverted microscope with phase contrast 20× dry lens (NA 0.4). Alternatively, the cells cultured in glass-bottom dishes were monitored under transmission light mode (DIC images) with Zeiss LSM510 META confocal microscope with 63×, water immersion lens (NA 1.2). The live cell DIC images of the endothelial cells were captured continuously up to 15 minutes at room temperature at the speed of about 1 frame/min. For fluorescence images, the cells were cultured on glass-bottom dishes for two days before the experiments. At indicated time point after addition of autoantibodies, 10 μM Hoechst dye 33342 (Sigma Inc., St Louis, Mo.) was added into the culture medium for 15 min at 37° C. in a dark chamber. As described previously, the chromatin condensation and fragmentation was visualized with the Zeiss confocal laser scanning microscope using a 63× water immersion objective, with the excitation wavelength set at 351 nm and the emission filter set at 385-470 nm. We used Texas Red-labeled phalloidin to visualize actin stress fibers. First, we aseptically inserted glass coverslips (12-mm diameter) into 24-well tissue culture plate. […]
# [1] = test system: rat pheochromocytoma (PC12) cells; assay: bFGF-induced neurite outgrowth assay in PC12 cells; format: cell-based
# Procedure: Undifferentiated rat PC12 cells were obtained from American Type Culture Collection (Rockville, Md.) and plated at low density in 60 mm dishes. Three groups of 25-50 cells/dish were counted at baseline and at 3 days and 8 days after the addition of test patient protein-A eluate fractions (1:50 or 1:100 dilutions corresponding to 1-30 ug/mL protein). Neurite outgrowth represents the percentage of PC12 cells expressing more than one neurite. A neurite is defined as a cell process that is at least 2 cell diameters in length. Results represent the mean±SD of triplicate determinations in each test fraction.
# Undifferentiated rat PC12 cells obtained from the ATCC were plated at low density. Groups of 25-50 cells/dish were counted at baseline and at 3 and 8 days after exposure to 10 ng/mL basic fibroblast growth factor in the presence or absence of test diabetic plasma IgG fractions and Y27632. Results represent triplicate determinations for each test fraction.
molecule,measurement,setting,value
"C[C@@H](N)[C@H]1CC[C@H](C(=O)Nc2ccncc2)CC1 [Patient Y27632, Y27632]",inhibition of endothelial cell apoptosis from one diabetic IgG fraction,"Bovine endothelial cells; 10 uM, n=3 experiments",partially inhibited
same,inhibition of autoantibody-induced stress fiber formation,endothelial cells,largely inhibited
same,restoration of bFGF-induced neurite outgrowth in presence of blocking autoantibodies,"[1]; Y27632 1 uM, bFGF 10 ng/mL, autoantibodies from three diabetic patients",completely restored neurite outgrowth
same,restoration of bFGF-induced neurite outgrowth in presence of blocking autoantibodies,"[1]; co-incubation, concentration not stated",abolished; also recorded: neutralization of inhibition; also recorded: reversal
same,restoration of bFGF-induced neurite outgrowth in presence of blocking autoantibodies,"[1]; co-incubation, concentration not stated, listed as Y-27632",completely restored
CC(C)[C@H](NC(=O)c1ccc2ccccc2n1)C(=O)N[C@@H](CC(=O)O)C(=O)COc1c(F)cccc1F [Q-VD-OPH],block of apoptosis in cells exposed to IgG from patient #2,"Bovine endothelial cells; 10 μM, 12 hours",almost completely blocked apoptosis
same,block of apoptosis in cells exposed to diabetic plasma IgG,Bovine endothelial cells; concentration not given,nearly completely blocked apoptosis
bFGF: Recombinant human bFGF from Austral Biologicals,rescue or prevention of eluate-induced apoptosis,"Bovine endothelial cells; 100 pg/mL bFGF co-incubated with 4-30 ug/mL active protein-A eluate from 5 of 5 diabetic maculopathy plasmas, preliminary",did not rescue or prevent apoptosis
